Experimental data taken from patent US20100143319A1, “KIWIFRUIT COMPOSITIONS” (priority 2007, published 2010).

What was measured:
[1] = system: mouse small intestine motility; test: First animal trial: small intestine motility experiment (Peristaltic Inhibition Model, diphenoxylate 0.25 g/l); assay type: in vivo, Kunmin male mice; details: model control: 0.25 g/l diphenoxylate oral, 20 ml/kg BW; mean ± SD, n=10; P<0.01 vs negative control
From the text: Experimental animals: 100 Kunmin male mice (class two) were purchased from the animal center in the Academy of Military Medical Sciences of the Chinese PLA, with a weight of 16 to 18 g. • Group 1: 50 mice were randomly divided into 5 experimental groups each of 10 mice (negative control group, model control group and three dosage groups), to test small intestine motility. • Group 2: 50 mice were randomly divided into 5 experimental groups each of 10 mice (negative control group, model control group and three dosage groups), to measure the following parameters: time of first melena defecation, the number of faeces pellets, the weight of faeces, and to observe the shape of the faeces. […]
For this experiment, the dosage was set at 10 times that of the recommended dosage, namely 0.29 g/kgBW per day (4 capsules). […] Oral intubation was used to administer the dose to the mice, at a measured quantity of 20 ml/kgBW.
8 days after oral administration of the different treatments, each group was fasted for 16 hours (with free access to drinking water). Mice in the Peristaltic Inhibition Model control group and the three dose groups were orally administered 0.25 g/l, diphenoxylate at a measured quantity of 20 ml/kg BW. […] The 0 g/kg BW group (negative control group and model control group) were orally administered blank inks with a measured quantity of 20 ml/kg BW. […]

mouse Constipation Model = test: First animal trial: constipation experiment (Constipation Model, diphenoxylate 0.50 g/l); assay type: in vivo, Kunmin male mice; details: mean ± SD, n=10
From the text: Experimental animals: 100 Kunmin male mice (class two) were purchased from the animal center in the Academy of Military Medical Sciences of the Chinese PLA, with a weight of 16 to 18 g. • Group 1: 50 mice were randomly divided into 5 experimental groups each of 10 mice (negative control group, model control group and three dosage groups), to test small intestine motility. • Group 2: 50 mice were randomly divided into 5 experimental groups each of 10 mice (negative control group, model control group and three dosage groups), to measure the following parameters: time of first melena defecation, the number of faeces pellets, the weight of faeces, and to observe the shape of the faeces. Number of qualitative qualification is SCXK M 2002-001.
For this experiment, the dosage was set at 10 times that of the recommended dosage, namely 0.29 g/kgBW per day (4 capsules). The experiment was designed with a low dosage group (0.145 g/kgBW) (2 capsules) and a high dosage group (0.87 g/kgBW) (12 capsules). The kiwifruit extract was dissolved by gentle agitation into sterile distilled water. For both the negative control group (0 g/kgBW) and the model control group sterile distilled water was used as the treatment. Oral intubation was used to administer the dose to the mice, at a measured quantity of 20 ml/kgBW.
Parameters measured in the animal trial were time of defecation, the number of faeces pellets, the weight of the faeces, and visual observation of the shape of the faeces
The different doses of kiwifruit composition were orally administered to the mice, and the shape of the faeces during the eight day feeding trial was observed. […] The mice in the Peristaltic Inhibition Model control group and the three dose groups were orally administered 0.50 g/l of diphenoxylate in the calculated volume of 20 ml/kg BW, whilst the negative group were given an equivalent volume of water. […] The time of the first melena defecation was recorded, along with the number of faecal pellets within 5 hours and the weight of the faeces, as well as the shape of the faeces.

[2] = model control: 0.50 g/l diphenoxylate oral, 20 ml/kg BW, P 0.000 vs negative control

CCOC(=O)C1(c2ccccc2)CCN(CCC(C#N)(c2ccccc2)c2ccccc2)CC1 [diphenoxylate, Diphenoxylate]
Ink Progression (%) [1]: 33.8 ± 7.0 % | Number of faeces pellets defecated within 5 hours (grain) (mouse Constipation Model; [2]): 25 ± 16 grain | Weight of faeces defecated within 5 hours (mouse Constipation Model; [2]): 0.47 ± 0.26 grain | Time of first melena defecation (mouse Constipation Model; model control: diphenoxylate oral, 20 ml/kg BW (0.50 g/l, 0.25 g/L elsewhere in the source), P<0.01 vs negative control): 231.7 ± 81.7 min
